Where a name gives a salt, the structure may show the parent alone.
How the values were obtained:
[1] = tested on: Randox MDPV kit; details: compared to 100% for (±)-MDPV, Swortwood et al 2013, Table 7; cited from earlier work
[2] = tested on: Randox mephedrone/methcathinone kit; details: compared to 100% for (±)-mephedrone, Swortwood et al 2013, Table 7; cited from earlier work
[3] = tested on: DO antibody 1 (IgG fraction of antiserum raised to DOB-BSA); experiment: Competitive microtitre plate ELISA, DO antibody 1 (antiserum raised to DOB-BSA); type: binding; details: for % Cross-Reactivity: DO antibody 1, relative to DOB = 100%, calibration curves 0-40 ng/ml
Method: The appropriate antibody coating dilution was determined using standard ELISA checkerboard techniques. The plate was incubated for 2 hours at 37° C., washed 4 times over 10 minutes with Tris buffered saline containing Tween 20 (TBST) and tapped dry. […] The appropriate dilution of conjugate was also determined using standard ELISA checkerboard techniques. The plate was incubated at 25° C. for 1 hour. Excess unbound conjugate was removed by washing 6 times over a 10-15 minute period with TBST and tapped dry. 125 μl of tetramethylbenzidine (TMB) substrate solution was added to each well of the plate that was then incubated for 20 minutes in the dark at room temperature. The reaction was terminated by addition of 125 μl 0.2 M H2SO4 to each well. The absorbance was measured at 450 nm using a microtitre plate reader.

[4] = tested on: DO antibody 2 (IgG fraction of antiserum raised to DOB-BSA); experiment: Competitive microtitre plate ELISA, DO antibody 2 (antiserum raised to DOB-BSA); type: binding; details: for % Cross reactivity: DO antibody 2, relative to DOB = 100
Method: The wells of an enhanced binding 96 well polystyrene microtitre plate were coated with IgG fraction of antiserum raised to DOB-BSA, diluted in 10 mM Tris, pH8.5 (125 μl/well). The appropriate antibody coating dilution was determined using standard ELISA checkerboard techniques. The plate was incubated for 2 hours at 37° C., washed 4 times over 10 minutes with Tris buffered saline containing Tween 20 (TBST) and tapped dry. Standard solutions of DOB were prepared in TBST at 0, 0.625, 1.25, 2.5, 5, 10, 20 & 40 ng/ml, and 50 μl of each was added to the appropriate wells. 75 μl of conjugate (Example 22) diluted in Tris buffer (pH 7.2) containing EDTA, D-mannitol, sucrose, thimerosal and BSA, was added to each of the wells. The appropriate dilution of conjugate was also determined using standard ELISA checkerboard techniques. The plate was incubated at 25° C. for 1 hour. Excess unbound conjugate was removed by washing 6 times over a 10-15 minute period with TBST and tapped dry. 125 μl of tetramethylbenzidine (TMB) substrate solution was added to each well of the plate that was then incubated for 20 minutes in the dark at room temperature. The reaction was terminated by addition of 125 μl 0.2 M H2SO4 to each well. The absorbance was measured at 450 nm using a microtitre plate reader. In order to determine the specificity of the competitive ELISAs, standard solutions of a range of structurally similar compounds were prepared in TBST. Using calibration curves generated from these compounds (0-40 ng/ml), the cross-reactivity was determined.

[5] = tested on: 2C antibody (IgG fraction of antiserum raised to 2C-B-BSA); experiment: Competitive microtitre plate ELISA, 2C antibody (antiserum raised to 2C-B-BSA); type: binding; details: for % Cross-Reactivity / IC50 (standard concentration which produces 50% inhibition of maximal signal): 2C antibody; for % Cross-Reactivity: relative to 2C-B = 100%, calibration curves 0-80 ng/ml; for IC50 (standard concentration which produces 50% inhibition of maximal signal): 2C-B standard, competitive ELISA
Method: The wells of an enhanced binding 96 well polystyrene microtitre plate were coated with IgG fraction of antiserum raised to 2C-B-BSA, diluted in 10 mM Tris, pH8.5 (125 μl/well). The appropriate antibody coating dilution was determined using standard ELISA checkerboard techniques. The plate was incubated overnight at 4° C., washed 4 times over 10 minutes with Tris buffered saline containing Tween 20 (TBST) and tapped dry. Standard solutions of 2CB were prepared in TBST at 0, 1.25, 2.5, 5, 10, 20, 40 & 80 ng/ml, and 50 μl of each was added to the appropriate wells. 75 μl of conjugate (Example 11) diluted in Tris buffer (pH 7.2) containing EDTA, D-mannitol, sucrose, thimerosal and BSA, was added to each of the wells. The appropriate dilution of conjugate was also determined using standard ELISA checkerboard techniques. The plate was incubated at 25° C. for 1 hour. Excess unbound conjugate was removed by washing 6 times over a 10-15 minute period with TBST and tapped dry. 125 μl of tetramethylbenzidine (TMB) substrate solution was added to each well of the plate that was then incubated for 20 minutes in the dark at room temperature. The reaction was terminated by addition of 125 μl 0.2 M H2SO4 to each well. The absorbance was measured at 450 nm using a microtitre plate reader. In order to determine the specificity of the competitive ELISAs, standard solutions of a range of structurally similar compounds were prepared in TBST. Using calibration curves generated from these compounds (0-80 ng/ml) percentage cross-reactivity was determined.

[6] = tested on: AxSYM amphetamine/methamphetamine II assay; details: even when tested at 5,000 ng/mL, Petrie et al 2013; cited from earlier work
[7] = tested on: CEDIA amphetamine/ecstasy immunoassay; details: CEDIA assay; tested at 5,000 ng/ml; Petrie et al 2013; cited from earlier work
[8] = tested on: EMIT II Plus amphetamines assay; details: tested at 5,000 ng/ml, Petrie et al 2013; cited from earlier work

SMILES | % Cross-Reactivity [3] [%] | % Cross reactivity [4] [%] | % Cross-Reactivity [5] [%] | cross-reactivity [6] | cross-reactivity [7] | cross-reactivity [8] | also measured
CCCC(C(=O)c1ccc2c(c1)OCO2)N1CCCC1 (racemic) [(±)-MDPV] |  |  |  |  |  |  | cross-reactivity [1]: 100%
CNC(C)C(=O)c1ccc(C)cc1 (racemic) [(±)-mephedrone, mephedrone] |  |  |  |  |  |  | cross-reactivity [2]: 100%
COc1cc(CC(C)N)c(OC)cc1Br (racemic) [DOB, 1-(4-bromo-2,5-dimethoxyphenyl)propan-2-amine] | 100.0 | 100 | <1.0 | does not show cross-reactivity | 8.5% | 39.1% | % B/Bo ([3]; DOB 0.625 ng/ml): 64.5%; % B/Bo ([3]; DOB 1.25 ng/ml): 58.1%; % B/Bo ([3]; DOB 2.5 ng/ml): 46.3%; % B/Bo ([3]; DOB 5 ng/ml): 34.6%; % B/Bo ([3]; DOB 10 ng/ml): 27.5%; % B/Bo ([3]; DOB 20 ng/ml): 17.5%; % B/Bo ([3]; DOB 40 ng/ml): 11.5%; IC50 ([4]; DO antibody 2, competitive ELISA): IC50 - 0.437 ng/mL
COc1cc(CC(C)N)c(OC)cc1C (racemic) [DOM, 1-(2,5-dimethoxy-4-methylphenyl)propan-2-amine] | 112.7 | 49 |  | does not show cross-reactivity | 3.9% | 23.2% | 
NCCc1ccccc1 [(+)-Phenethylamine] | <1.0 |  | <1.0 |  |  |  | binding of the antibody described in Table 2 ([3]; summary in words): not; binding of the antibody described in Table 4 ([5]; summary in words): not
CC(N)Cc1ccccc1 (centres unmarked) [Amphetamine] | <1.0 |  |  |  |  |  | 
CC(N)Cc1c2ccoc2c(Br)c2ccoc12 (centres unmarked) [Bromo DragonFly (HCl), 1-(4-Bromofuro[2,3-f][1]benzofuran-8-yl)propan-2-amine] |  | 96 |  |  |  |  | 
COc1cc(CC(C)N)c(OC)cc1Cl (centres unmarked) [DOC, 4-chloro-2,5dimethoxyamphetamine] |  | 47 |  |  |  |  | 
CCc1cc(OC)c(CC(C)N)cc1OC (centres unmarked) [DOET] |  | 50 |  | does not show cross-reactivity | 4.8% | 18.8% | 
COc1cc(CC(C)N)c(OC)cc1I.Cl (centres unmarked) [DOI HCl] |  | 73 |  |  |  |  | 
COc1cc([N+](=O)[O-])c(OC)cc1CC(C)N (centres unmarked) [DON, 1-(2,5-dimethoxy-4-nitrophenyl)propan-2-amine] | 43.1 | 57 |  |  |  |  | 
COc1cc(CCN)c(OC)cc1Br [Hapten 2C-B, 1-(4-bromo-2,5-dimethoxyphenyl)ethan-2-amine] | <1.0 |  | 100.0 | does not show cross-reactivity | 3.0% | 36.0% | % B/Bo ([5]; 2C-B 1.25 ng/ml): 86.8%; % B/Bo ([5]; 2C-B 2.5 ng/ml): 79.2%; % B/Bo ([5]; 2C-B 5 ng/ml): 69.2%; % B/Bo ([5]; 2C-B 10 ng/ml): 59.5%; % B/Bo ([5]; 2C-B 20 ng/ml): 53.5%; % B/Bo ([5]; 2C-B 40 ng/ml): 44.6%; % B/Bo ([5]; 2C-B 80 ng/ml): 38.1%; IC50 (standard concentration which produces 50% inhibition of maximal signal) [5]: 0.024618 µg/mL; IC50 (standard concentration which produces 50% inhibition of maximal signal) ([5]; listed as 2CB): is 24.6 ng/ml).
COc1cc(CCN)c(OC)cc1Cl [Hapten 2C-C, 1-(4-chloro-2,5-dimethoxyphenyl)ethan-2-amine] | <1.0 |  | 148.6 |  |  |  | 
COc1cc(CCN)c(OC)cc1C#N [Hapten 2C-CN, 1-(4-cyano-2,5-dimethoxyphenyl)ethan-2-amine] | <1.0 |  | 66.8 |  |  |  | 
COc1cc(CCN)c(OC)cc1C [Hapten 2C-D, 1-(2,5-dimethoxy4-methylphenyl)ethan-2-amine] | <1.0 |  | 308.3 |  |  |  | 
CCc1cc(OC)c(CCN)cc1OC [Hapten 2C-E, 1-(2,5-dimethoxy-4-ethylphenyl)ethan-2-amine] | <1.0 |  | 178.8 |  |  |  | 
COc1ccc(OC)c(CCN)c1 [Hapten 2C-H] |  |  |  | does not show cross-reactivity | 3.1% | none | 
COc1cc(CCN)c(OC)cc1I [Hapten 2C-I, 1-(2,5-dimethoxy-4-iodophenyl)ethan-2-amine] |  |  |  | does not show cross-reactivity | none | 28.6% | 
CCCc1cc(OC)c(CCN)cc1OC [Hapten 2C-P, 1-(2,5-dimethoxy-4-propylphenyl)ethan-2-amine] | <1.0 |  | 276.8 |  |  |  | 
COc1cc(SC(C)C)c(OC)cc1CCN [Hapten 2C-T-4] |  |  |  | does not show cross-reactivity | 2.2% | none | 
CN[C@@H](C)Cc1ccccc1 [Methamphetamine] | <1.0 |  |  |  |  |  | 
COc1cc(OC)c(OC)cc1CC(C)N (centres unmarked) [TMA, 2,4,5-trimethoxyamphetamine] | 9.8 | 5 |  |  |  |  | 

Source: patent publication US10775394B2, “Immunoassay for phenethylamines of the 2C and DO sub-families” (Randox Laboratories Limited, priority 2013, dated 2020)
